The values that follow come from BindingDB's records for doi:10.1080/14756360310001640913 (Saarland University, 2004).

This assay concerns the target T1, Steroid 17-alpha-hydroxylase/17,20 lyase (Homo sapiens, UniProt P05093).
T1 sequence (P05093 whole entry): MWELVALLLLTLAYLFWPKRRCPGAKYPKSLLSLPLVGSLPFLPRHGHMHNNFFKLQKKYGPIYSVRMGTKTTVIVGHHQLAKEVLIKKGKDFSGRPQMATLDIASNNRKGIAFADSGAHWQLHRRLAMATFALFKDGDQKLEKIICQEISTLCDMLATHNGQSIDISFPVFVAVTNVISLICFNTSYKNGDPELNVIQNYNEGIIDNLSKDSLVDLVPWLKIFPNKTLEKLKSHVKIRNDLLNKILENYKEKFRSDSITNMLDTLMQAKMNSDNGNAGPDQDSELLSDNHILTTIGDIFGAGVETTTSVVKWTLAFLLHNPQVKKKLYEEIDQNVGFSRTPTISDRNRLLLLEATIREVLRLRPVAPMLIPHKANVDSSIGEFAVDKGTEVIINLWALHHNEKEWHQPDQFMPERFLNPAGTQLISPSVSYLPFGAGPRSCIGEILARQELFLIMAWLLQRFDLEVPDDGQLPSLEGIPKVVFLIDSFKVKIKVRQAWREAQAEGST
The assay can be described thus: CYP17 Assay. The following applies: pH 7.4; 37 °C.

The compound `COc1ccc2c(c1)CCC(Cc1cnc[nH]1)=C2C` had an IC50 of 110 nM.
With `COc1cc2c(cc1OC)C(C)=C(Cc1cnc[nH]1)CC2` [5-[(6,7-dimethoxy-1-methyl-3,4-dihydronaphthalen-2-yl)methyl]-1H-imidazole] the figure was 490 nM.
`Oc1ccc(-c2ccc(Cn3ccnc3)cc2)cc1O` [4-[4-(1H-imidazol-1-ylmethyl)phenyl]benzene-1,2-diol] had an IC50 of 120 nM.
`COc1cc2c(cc1O)C(C)=C(Cc1cnc[nH]1)CC2` [dihydronaphthalene derivative] displayed an IC50 of 1100 nM.
